Experimental data reported in US20130203649A1, “INHIBITORS OF TLR SIGNALING BY TARGETING TIR DOMAIN INTERFACES” (UNIVERSITY OF MARYLAND, BALTIMORE, priority 2012, published 2013).
Residues, ends and D or L forms follow the SMILES beside them. No end group written: not given here.

What was measured:
C57BL/6J mice = test: In vivo efficiency of decoy peptides (Table 1; LPS challenge in mice); design: species or system mouse
Description: FIG. 4. Effect of select TRAP decoy peptides on TNF-α and IL-6 in blood following an ip LPS challenge. C57BL/6J mice were injected with TR5, TR6, or TR7 peptide or mock-treated 1 hour before injection of purified E. coli LPS. Peptides and LPS were injected to mice intraperitonealy 10 nmol or 1 μg per gram of animal weight, correspondingly.
FIG. 10. […] (A-E) C57BL/6J mice were injected i.p. with purified Escherichia coli K235 LPS (1 μg/g) or PBS. Peptides (10 nmol/g of animal weight) were injected i.p. (A, B, D, E) or i.v. (C) 1 h before (A, B, and C) or 30 min after (D, E) i.p. injection of LPS. Data in panels A and D show plasma IL-6 and TNF-α levels measured 2 h after LPS challenge. Peptide TM8/9 was used as a non-inhibitory control peptide. Data represent the means±s.e.m. for 6-12 blood samples obtained in at least three independent experiments. *p<0.01. (F, G) C57BL/6J mice were challenged i.p. with a lethal LPS dose (17.5 μg/g). Peptides (10 nmol/g) were injected i.p. 1 h before LPS challenge. […] The statistical significance of changes in mortality and survival time was determined by the Mantel Cox log-rank test using GraphPad Prism software (Version 5.04). *p<0.01.
Eight-week-old C57BL/6J mice were injected with 1 or 17.5 μg/g animal weight of E. coli K235 LPS i.p. Peptides reconstituted in PBS were administered i.p. or i.v. Control groups received equivalent volume of solvent (PBS). The blood samples were collected 1, 2, 4, and 8 h, or 2, 8, and 24 h after LPS challenge. The plasma samples were obtained and kept frozen until TNF-α and IL-6 were measured by ELISA. Survival of animals was monitored every 6-16 h after LPS challenge. All animal experiments were carried out with institutional approval.

TLR4 [1] = test: LPS-induced cytokine mRNA expression in mouse macrophages (real-time RT-PCR); format: cell-based; conditions: for LPS-induced IFNβ and Rantes cytokine mRNA production / LPS-induced IL-1β mRNA production: 5 μM peptide; for LPS-induced IFNβ and Rantes cytokine mRNA production / LPS-induced IL-1β mRNA production / LPS-induced IL-1β, IFNβ, and RANTES mRNA / LPS-induced TNFα mRNA expression: LPS 10 ng/ml, 1 h
Description: C57BL/6J mice were obtained from The Jackson Laboratory (Bar Harbor, Me.). Primary peritoneal macrophages were obtained by peritoneal lavage 4 days after intraperitoneal injection (3 ml) of sterile 3% thioglycolate broth. Washed cells were resuspended in RPMI 1640 which contained 2% FBS, 1% penicillin:streptomycin and 2 mM L-glutamine. After plating, cells were incubated overnight at 37° C. and then washed with PBS to remove non-adherent cells. Cells were exposed to peptides 30 min before stimulation with a TLR agonist.
Total cellular RNA was isolated using Tripure from Roche (San Francisco, Calif.) following manufacture's protocol. RNA was then reverse transcribed using AMV Reverse Transcriptase from Promega (Madison, Wis.) with poly-T priming as per manufacturer's directions. cDNA was then quantified by real-time PCR using Applied Biosystems Fast SYBR Green PCR Master Mix and an ABI Prism 7500HT cycler. Primers used for detection: hypoxanthine phosphoribosyltransferase (HPRT) (forward: […] (SEQ ID NO:51), reverse: […] (SEQ ID NO:52)), TNFα (forward: […] (SEQ ID NO:53), reverse: […] (SEQ ID NO:54)), IL-1β (forward: […] (SEQ ID NO:55), reverse: […] (SEQ ID NO:56)), IFNβ (forward: […] (SEQ ID NO:57), reverse: CTCGGACCACCATCCAGG (SEQ ID NO:58)) and RANTES (forward: […] (SEQ ID NO:59), reverse: […] (SEQ ID NO:60)). The primers were designed using Primer Express 2.0 (Applied Biosystems). Using HPRT as reference, the ΔCt method was used to calculate relative gene expression. One-way ANOVA was preformed, as well as Dunnett's multiple comparison post hoc test with a p≦0.01 selected as the level of significance.
Total RNA was isolated with Nucleospin RNA II kits (Macherey-Nagel, Bethlehem, Pa.), followed by DNase digestion. cDNA was synthesized from 1 μg RNA using Goscript transcriptase (Promega), and subjected to real-time PCR with gene-specific primers for HPRT, TNF-α, IL-1β, IFNβ, and RANTES on H7900 ABI system using Fast SYBR Green master mix (Applied Biosystems, Foster City, Calif.).
To evaluate peptide-inhibitory activities, we first measured LPS-induced cytokine mRNA expression. […] […] Decoy peptide TM4 is derived from the BB loop of TRAM TIR; we previously identified this peptide as an effective TLR4 inhibitor (19).

TLR4 [2] = test: LPS-induced cytokine secretion by mouse macrophages (ELISA/multiplex); format: cell-based; conditions: for LPS-induced Rantes production: 6 h supernatants; for Decrease in LPS-induced cytokine production (FIG. 2, 8 panels): LPS 10 ng/ml for 5, 6 or 24 h
Description: Cytokine secretion was measured in supernatant samples collected at 6 or 24 h time points and stored at −80° C. Samples were analyzed by a multiplex assay at the University of Maryland Baltimore Cytokine Core Facility using a Luminex 100 reader and Softmax Pro software, or by ELISA kits for mouse IL-6 or TNF-α from BioLegend (San Diego, Calif.) and LT-4000 microplate reader.
A total of 2×10^6 cells was plated in 12-well plates and treated with peptides for 30 min prior to LPS stimulation. TNF-α, IL-1β, IL-6, and IFN-β were measured using ELISA kits from BioLegend (San Diego, Calif.), as recommended by the manufacturer.

| Compound | In vivo efficiency (C57BL/6J mice) | LPS-induced IFNβ and Rantes cytokine mRNA production (TLR4 [1]) | LPS-induced IL-1β mRNA production (TLR4 [1]) | LPS-induced transcriptional activation of IL-1β and IFN-β genes (TLR4 [1]; 20 μM peptide) | LPS-induced IL-1β, IFNβ, and RANTES mRNA (TLR4 [1]; 20 μM peptide) | LPS-induced TNFα mRNA expression (TLR4 [1]; 20 μM peptide) | LPS-induced Rantes production (TLR4 [2]) | Decrease in LPS-induced cytokine production (FIG. 2, 8 panels) (TLR4 [2]) | LPS-induced (TLR4-mediated) cytokine mRNA expression (TLR4 [1]; 5 or 20 μM peptide 30 min before LPS, 1 or 5 h) | LPS-induced cytokine secretion (TLR4 [2]; 5 or 20 μM peptide, LPS 100 ng/ml, supernatants 24 h) |
| --- | --- | --- | --- | --- | --- | --- | --- | --- | --- | --- |
| RQIKIWFQNRRMKWKKPGFLRDPWCKYQML [TR6] | yes, i.p. | significantly inhibited | moderately inhibited | blocked | stronger inhibition | inhibit potently | inhibited | statistically significant |  |  |
| RQIKIWFQNRRMKWKKAAYPPELRFMYYVD [TR9] |  | significantly inhibited | moderately inhibited |  | stronger inhibition | inhibit potently | inhibited | statistically significant |  |  |
| RQIKIWFQNRRMKWKKEGSQASLRCF [TR3] |  | significantly inhibited | moderately inhibited |  | stronger inhibition | inhibit potently | inhibited | statistically significant |  |  |
| RQIKIWFQNRRMKWKKCLQDAIDHSGFT [TF5] | Yes, i.p. |  |  |  |  |  |  |  | inhibit | inhibit |
| CC[C@H](C)[C@H](NC(=O)[C@H](CCCCN)NC(=O)[C@@H](NC(=O)[C@H](CCC(N)=O)NC(=O)[C@@H](N)CCCNC(=N)N)[C@@H](C)CC)C(=O)N[C@@H](Cc1c[nH]c2ccccc12)C(=O)N[C@@H](Cc1ccccc1)C(=O)N[C@@H](CCC(N)=O)C(=O)N[C@@H](CC(N)=O)C(=O)N[C@@H](CCCNC(=N)N)C(=O)N[C@@H](CCCNC(=N)N)C(=O)N[C@@H](CCSC)C(=O)N[C@@H](CCCCN)C(=O)N[C@@H](Cc1c[nH]c2ccccc12)C(=O)N[C@@H](CCCCN)C(=O)N[C@@H](CCCCN)C(=O)N[C@@H](CCC(=O)O)C(=O)N[C@@H](CC(C)C)C(=O)N[C@@H](CS)C(=O)N[C@@H](CCC(N)=O)C(=O)N[C@@H](C)C(=O)N[C@@H](CC(C)C)C(=O)N[C@@H](CO)C(=O)N[C@@H](CCCNC(=N)N)C(=O)N[C@@H](CO)C(=O)N[C@@H](Cc1c[nH]cn1)C(=O)N[C@@H](CS)C(=O)N[C@@H](CCCNC(=N)N)C(=O)O [TR5] (H-RQIKIWFQNRRMKWKKELCQALSRSHCR-OH) | yes, i.p. | significantly inhibited | moderately inhibited |  | stronger inhibition | inhibit potently | inhibited | statistically significant |  |  |
| RQIKIWFQNRRMKWKKGGFYQVKEAVIHY [TR11] |  | significantly inhibited | moderately inhibited |  | stronger inhibition | inhibit potently | inhibited | statistically significant |  |  |
